Assay results published in publication PMC9929232, “On-demand male contraception via acute inhibition of soluble adenylyl cyclase” (Nature Communications, 2023).
Values joined by “and” are separate entries in the source; they are usually repeats but may differ in a detail not shown here. Equal values may be shown once.

Tests used:
[1] = cited from earlier work
human sperm [2] = experiment: Flagellar beat frequency of tethered human sperm; assay type: cell-based
Protocol: An inverted dark-field video microscope (IX73; Olympus) with a 10 x objective (mouse sperm) or a 20 x objective (human sperm) (UPLSAPO, NA 0.8; Olympus) was combined with a high-speed camera (ORCA Fusion; Hamamatsu). Dark-field videos were recorded with a frame rate of 200 Hz. The temperature of the heated stage was set to 37 °C (stage top incubator WSKMX; TOKAI HIT). The images were preprocessed with the ImageJ plugin SpermQ Preparator (Gaussian blur with sigma 0.5 px; subtract background method with radius 5 px) and analyzed using the ImageJ plugin SpermQ[57]. The beat frequency was determined from the highest peak in the frequency spectrum of the curvature time course, obtained by Fast Fourier Transform.

epididymal mouse sperm = experiment: Ex vivo cAMP generation in epididymal sperm from inhibitor-treated male mice (oral or i.p.)
Protocol: For capacitation, sperm were incubated for 90 min in TYH containing 3 mg/ml BSA and 25 mM NaHCO3 in a 37 °C incubator. To control for the consequences of dilution during isolation of epididymal mouse sperm for ex vivo assays, we assessed the ability of bicarbonate to induce a prototypical pattern of tyrosine phosphorylation (pY) which is a widely used molecular hallmark of capacitation[53]. […] For experiments studying sperm from injected mice, ‘swim out’ was performed in 200 μl TYH, which corresponded to a 1:10 dilution from epididymis (20 μg cauda in 200 μl buffer). Capacitation-induced changes were assessed by adding 50 µl of ‘swim out’ sperm to increasing volumes of capacitating TYH buffer.
Intracellular cAMP levels were quantified using the Direct cAMP ELISA kit (Enzo) as above.

human sperm [3] = experiment: cAMP generation in human sperm in vitro, incl. wash-out by dilution; assay type: cell-based; conditions: 30 minutes
Protocol: Samples of human semen were obtained from healthy volunteers with their prior written consent following a protocol approved by Weill Cornell Medicine’s Institutional Review Board (IRB 21-03023495). […] Semen was incubated for 30 min in a 37 °C incubator to liquefy. […] The tubes were incubated at a tilted angle of 45° at 37 °C for 60 min. Motile sperm were allowed to swim up into the HTF layer; immotile sperm and other cells or tissue debris remain in the ejaculate fraction. Up to 3 ml of the HTF layer was transferred to a fresh tube and washed twice in HTF by centrifugation (700 × g, 20 min). The supernatant was removed after the last centrifugation step and the sperm pellet was resuspended in 1 ml HTF. The purity and vitality of each sample was assessed via light microscopy. Sperm cell numbers were determined using a hemocytometer and adjusted to a concentration of 1 × 10^7 cells/ml.

mouse sperm = experiment: Acrosome reaction assay, mouse sperm, zona pellucidae-evoked; assay type: cell-based
Protocol: Zonae pellucidae were isolated from female mice superovulated by intraperitoneal injection of 10 I.U. […] 3 days before the experiment. 14 h before oocyte isolation, mice were injected with 10 I.U. pregnant mare’s serum gonadotropin. Mice were sacrificed by cervical dislocation and oviducts were dissected. Cumulus-enclosed oocytes were separated from the oviducts and placed into TYH buffer containing 300 μg/ml hyaluronidase. After 15 min, cumulus-free oocytes were transferred into fresh buffer and washed twice. Zonae pellucidae and oocytes were separated by shear forces generated by expulsion from […] pasteur pipettes. Zona pellucidae were counted, transferred into fresh buffer, and heat-solubilized by incubation for 10 min at 65 °C.
Acrosome reaction was induced by incubating mouse sperm with 50 mouse solubilized zonae pellucidae for 15 min at 37 °C. Human sperm were incubated with 10 μM progesterone for 30 min at 37 °C. […] Samples were air-dried on microscope slides and fixed for 30 minutes in 100% ethanol at room temperature (RT). For acrosome staining, mouse and human sperm were incubated for 30 min in the dark with 5 μg/ml PNA-FITC or 5 μg/ml PSA-FITC, respectively, and counterstained with 2 μg/ml DAPI. After curing, slides were analyzed using a Zeiss LSM 880 Laser Scanning Confocal Microscope; images were captured with two photomultiplier and one Gallium Arsenide Phosphide detector using ZEN Imaging software. For each condition, at least 600 cells were analyzed using ImageJ 1.52.

[4] = at 20 µM; cited from earlier work
[5] = cited from earlier work; remark: listed apart in the source
[6] = target: T1, purified recombinant human sAC protein (Homo sapiens, UniProt Q96PN6); experiment: In vitro adenylyl cyclase activity assay (two-column method);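 for cyclase activity (%): 100% equals DMSO vehicle-treated control activity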; assay type: biochemical; set-up: cyclase activity: unit not given here; conditions: for cyclase activity (%): Fig. 1c normalized replicates; for cyclase activity: Fig. 1c replicates
T1 construct: human sACt protein was incubated
T1 sequence (Q96PN6 1-469 limits assumed): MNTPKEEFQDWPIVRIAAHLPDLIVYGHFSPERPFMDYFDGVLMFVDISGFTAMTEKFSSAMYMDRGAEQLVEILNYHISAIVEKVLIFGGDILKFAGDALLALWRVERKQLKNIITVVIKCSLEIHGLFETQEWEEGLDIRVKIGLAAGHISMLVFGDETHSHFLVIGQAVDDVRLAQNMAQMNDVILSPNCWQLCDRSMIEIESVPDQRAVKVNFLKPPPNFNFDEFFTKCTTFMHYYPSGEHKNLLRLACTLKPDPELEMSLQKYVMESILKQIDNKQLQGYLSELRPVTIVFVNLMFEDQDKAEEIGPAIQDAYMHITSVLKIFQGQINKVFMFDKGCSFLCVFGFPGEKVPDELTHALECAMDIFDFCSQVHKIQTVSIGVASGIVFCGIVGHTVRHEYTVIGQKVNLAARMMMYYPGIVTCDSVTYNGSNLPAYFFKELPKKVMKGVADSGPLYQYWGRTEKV
Protocol: All in vitro adenylyl cyclase activity assays were performed via the “two-column” method measuring the conversion of [α-^32P] ATP into [^32P] cAMP[54], as previously described. Briefly, human sACt protein was incubated in buffer containing 50 mM Tris-HCl, pH 7.5, 4 mM MgCl2, 2 mM CaCl2, 1 mM ATP, 3 mM DTT, 40 mM NaHCO3 in the presence of the indicated concentrations of different sAC inhibitors or vehicle (1% DMSO).

[7] = sheet Fig. 2c replicates, 5 μM TDI-10229 or 10 nM TDI-11861 present
[8] = sheet Fig. 2d replicates, 5 min preincubation in 5 μM TDI-10229 or 10 nM TDI-11861, diluted 1:100 into inhibitor-free media
[9] = concentration (uM) -0.52288 [sic]
[10] = concentration (uM) -1.95424 [sic]
[11] = concentration (uM) -2.43136 [sic]
[12] = concentration (uM) -2.90848 [sic]
[13] = concentration (uM) -3.38561 [sic]
[14] = concentration (uM) -3.86274 [sic]
[15] = concentration (uM) -4.33985 [sic]
[16] = concentration (uM) -4.81696 [sic]
[17] = concentration (uM) printed -1.47712

## Nc1nc(Cl)cc(-c2nn(C(F)F)cc2Cc2ccccc2OCCN2CCOC[C@@H]2CO)n1 [TDI-11861]
[1]
  activity in glutathione trapping assays: no significant activity
Human sperm [2]; distal 5 µm of flagellum, 5 μM TDI-10229 or 10 nM TDI-11861, mean ± SEM
  Beat frequency, Basal: 11.4 ± 1.3 Hz
Human sperm [2]; distal 5 µm, 25 mM NaHCO3, 5 μM TDI-10229 or 10 nM TDI-11861, mean ± SEM
  Beat frequency, + HCO3-: 11.0 ± 0.8 Hz
Epididymal mouse sperm; 50 mg/kg i.p.
  bicarbonate-induced cAMP response, sperm directly isolated: prevented bicarbonate-induced increase in cAMP
  inhibition of bicarbonate-induced cAMP elevation and motility after ex vivo dilution: persisted following ex vivo dilution
Epididymal mouse sperm; 50 mg/kg oral, 1 hour, cauda sperm
  bicarbonate-induced cAMP response, sperm measured directly: no bicarbonate-induced increase in cAMP
Epididymal mouse sperm; Fig. 3a replicates, 50 mg/kg oral gavage, 100-fold dilution into inhibitor-free media, capacitating relative to non-capacitated, 50 mg/kg
  normalized cAMP, diluted: 1.404 and 1.468 and 0.846 and 0.4392 and 0.6198 and 0.8825 and 1.178 and 0.8649 and 1.043
Epididymal mouse sperm; Fig. 3a replicates, 50 mg/kg oral gavage, capacitating relative to non-capacitated sperm of same mouse, 12 minutes, 50 mg/kg
  normalized cAMP, non-diluted: 1.2234 and 1.098 and 0.3601 and 0.9436 and 0.9025 and 0.6956 and 0.2677 and 0.09176 and 0.3627
Epididymal mouse sperm; Fig. 3c replicates, 50 mg/kg i.p., 100-fold dilution into inhibitor-free media, capacitating relative to non-capacitated, 50 mg/kg
  normalize cAMP, diluted: 0.9454 and 0.4612 and 0.4886 and 0.7809 and 1.256 and 0.4688 and 0.8437 and 0.776 and 0.4914 and 0.7724 and 0.3623
Epididymal mouse sperm; Fig. 3c replicates, 50 mg/kg i.p., capacitating relative to non-capacitated sperm of same mouse, 12 minutes, 50 mg/kg
  normalize cAMP, non-diluted: 0.1221 and 0.9832 and 1.008 and 0.7764 and 0.7982 and 0.2443 and 0.1415 and 0.1173 and 0.5249 and 1.087 and 1.4
Human sperm [3]; [7]
  cAMP, capacitation media: 0.4536 pmol/10^6 sperm and 0.2982 pmol/10^6 sperm and 0.3279 pmol/10^6 sperm and 0.1875 pmol/10^6 sperm and 0.4476 pmol/10^6 sperm and 0.4575 pmol/10^6 sperm and 0.7152 pmol/10^6 sperm and 0.6672 pmol/10^6 sperm and 0.4645 pmol/10^6 sperm and 0.4351 pmol/10^6 sperm and 0.0606 pmol/10^6 sperm and 0.2667 pmol/10^6 sperm
  cAMP, non-capacitation media: 0.6403 pmol/10^6 sperm and 0.8029 pmol/10^6 sperm and 0.2251 pmol/10^6 sperm and 0.2037 pmol/10^6 sperm and 0.6722 pmol/10^6 sperm and 0.7415 pmol/10^6 sperm and 0.6566 pmol/10^6 sperm and 0.7427 pmol/10^6 sperm and 0.4253 pmol/10^6 sperm and 0.8706 pmol/10^6 sperm and 0.1092 pmol/10^6 sperm and 0.7462 pmol/10^6 sperm
Human sperm [3]; [8]
  cAMP, capacitation media: 0.7435 pmol/10^6 sperm and 0.3279 pmol/10^6 sperm and 0.4575 pmol/10^6 sperm and 0.7152 pmol/10^6 sperm and 0.6672 pmol/10^6 sperm and 0.4645 pmol/10^6 sperm and 0.4351 pmol/10^6 sperm and 0.0606 pmol/10^6 sperm and 0.2667 pmol/10^6 sperm and 0.2982 pmol/10^6 sperm
  cAMP, non-capacitation media: 0.059 pmol/10^6 sperm and 0.2015 pmol/10^6 sperm and 0.452 pmol/10^6 sperm and 0.1712 pmol/10^6 sperm and 1.016 pmol/10^6 sperm and 0.658 pmol/10^6 sperm and 0.9025 pmol/10^6 sperm and 0.216 pmol/10^6 sperm and 0.84 pmol/10^6 sperm and 0.1317 pmol/10^6 sperm
Mouse sperm
  toxicity to sperm (rescue of acrosome response by cAMP/IBMX): not toxic to sperm
Mouse sperm; Fig. 2g replicates, 5 mM db-cAMP/500 μM IBMX, 5 μM TDI-10229 or 10 nM TDI-11861
  Acrosome reacted (%), basal + db-cAMP/IBMX: 33.6897% and 30.4912% and 38.1667% and 17.5365% and 24% and 40.1452%
Mouse sperm; Fig. 2g replicates, 50 heat-solubilized zona pellucidae, 5 μM TDI-10229 or 10 nM TDI-11861
  Acrosome reacted (%), ZP: 22.9233% and 33% and 26.2439% and 20.6667% and 34.5025% and 32.3333%
Mouse sperm; Fig. 2g replicates, 90 min capacitating media, 5 μM TDI-10229 or 10 nM TDI-11861
  Acrosome reacted (%), basal: 31.9785% and 35% and 27.6378% and 28.974% and 29% and 25%
Mouse sperm; Fig. 2g replicates, zona pellucidae, 5 mM db-cAMP/500 μM IBMX, 5 μM TDI-10229 or 10 nM TDI-11861
  Acrosome reacted (%), ZP + db-cAMP/IBMX: 42.963% and 32.2222% and 37.3475% and 28% and 29.3534% and 43%
[4]
  cytotoxicity in cell viability assays: no significant activity
[5]
  activity in AMES assays: no significant activity
[6]; [9]
  cyclase activity (%): 0%
  cyclase activity: 2069 and 1544 and 1561.8 and 2385.2 and 2164.1 and 1653.5
[6]; concentration (uM) -1 [sic]
  cyclase activity (%): 1.344% and 1.8728% and 2.004% and 2.905% and 3.587% and 4.384%
  cyclase activity: 2867.6 and 2750.4 and 2889.4 and 3159.9 and 3272.8 and 3037.2
[6]; [10]
  cyclase activity (%): 19.6796% and 15.3927% and 17.558% and 30.5194% and 31.8303% and 33.3011%
  cyclase activity: 13763.6 and 11459.5 and 13193 and 10525 and 12002.6 and 12163.6
[6]; [11]
  cyclase activity (%): 38.6741% and 36.8021% and 41.7291% and 63.9723% and 46.6554% and 57.8417%
  cyclase activity: 25051.1 and 25250.8 and 29205 and 19447.2 and 16584.9 and 19908.8
[6]; [12]
  cyclase activity (%): 59.9199% and 65.2563% and 61.8852% and 88.985% and 69.2179% and 73.6242%
  cyclase activity: 37676.4 and 43580.1 and 42557.3 and 26118.3 and 23558.8 and 24889.9
[6]; [13]
  cyclase activity (%): 101.82% and 89.3095% and 88.0533% and 91.9223% and 87.6768% and 92.6716%
  cyclase activity: 62575.6 and 59074.4 and 59892.2 and 26901.7 and 29264.3 and 30901.4
[6]; [14]
  cyclase activity (%): 102.032% and 91.5857% and 92.0528% and 108.947% and 93.3751% and 103.72%
  cyclase activity: 62701.3 and 60540.7 and 62541.6 and 31442.4 and 31025.6 and 34388.3
[6]; [15]
  cyclase activity (%): 103.469% and 99.6453% and 98.4201% and 105.132% and 92.0891% and 95.6319%
  cyclase activity: 63555.2 and 65732.4 and 66759.6 and 30424.8 and 30628.1 and 31835.7
[6]; [16]
  cyclase activity (%): 100%
  cyclase activity: 61494 and 65960.9 and 67806.2 and 29056.1 and 33073.3 and 33214.3
[6]; [17]
  cyclase activity (%): 6.461% and 6.308% and 6.301% and 11.7225% and 11.6858% and 13.5507%
  cyclase activity: 5908.5 and 5607.6 and 5735.6 and 5511.7 and 5776.1 and 5930.2
